Source: PubChem BioAssay (NCI)
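48-hour exposure; five concentrations; linearly interpolated endpoints. GI50: concentration for 50% inhibition of growth. TGI denotes the concentration required for complete inhibition of growth.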

What was measured:
Assay in all cases: DTP human tumour cell line panel, 48 h
[1] = test system: DU-145 prostate
[2] = test system: NCI-H23 lung
[3] = test system: OVCAR-4 ovarian
[4] = test system: SN12C renal
[5] = test system: SK-MEL-2 melanoma
[6] = test system: ACHN renal
[7] = test system: U251 CNS
[8] = test system: SNB-19 CNS
[9] = test system: NCI-H460 lung
[10] = test system: M14 melanoma
[11] = test system: MDA-N
[12] = test system: UACC-62 melanoma
[13] = test system: HOP-92 NSCLC

C=C1CC/C=C(/C(=O)O)CC[C@H]2[C@@H]1CC2(C)C
TGI [1]: > 100 µM
TGI [2]: > 100 µM
TGI [3]: > 100 µM
TGI [4]: > 100 µM
TGI [5]: > 100 µM
TGI [6]: > 100 µM
TGI [7]: > 100 µM
TGI [8]: > 100 µM
TGI [9]: > 100 µM
TGI [10]: > 100 µM
TGI [11]: > 100 µM
TGI [12]: > 100 µM
TGI [13]: > 100 µM

CC(C)(C)OC(=O)C1=C(C(=O)OC(C)(C)C)SC2(S1)C(C(=O)OC(C)(C)C)=C(C(=O)OC(C)(C)C)Sc1c2ssc1=O
TGI [1]: > 100 µM
TGI [2]: > 100 µM
TGI [3]: > 100 µM
TGI [4]: > 100 µM
TGI [5]: > 100 µM
TGI [6]: > 100 µM
TGI [7]: > 100 µM
TGI [8]: > 100 µM
TGI [9]: > 100 µM
TGI [10]: > 100 µM
TGI [11]: > 100 µM
TGI [12]: > 100 µM
TGI [13]: > 100 µM

O=C(O)c1c(-c2c3ccc(=O)cc-3oc3cc(O)ccc23)cc2ccccc2c1-c1ccccc1
TGI [1]: > 100 µM
TGI [2]: > 100 µM
TGI [3]: > 100 µM
TGI [4]: > 100 µM
TGI [5]: > 100 µM
TGI [6]: > 100 µM
TGI [7]: > 100 µM
TGI [8]: > 100 µM
TGI [9]: > 100 µM
TGI [10]: > 100 µM
TGI [11]: > 100 µM
TGI [12]: > 100 µM
TGI [13]: > 100 µM

COC(=O)[C@H]1[C@H](C(=O)OC)[C@@H](C)c2c(ccc3c2[nH]c2ccccc23)[C@@H]1C
TGI [1]: > 100 µM
TGI [2]: > 100 µM
TGI [3]: > 100 µM
TGI [4]: 33.5 µM
TGI [5]: > 100 µM
TGI [6]: > 100 µM
TGI [7]: > 100 µM
TGI [8]: > 100 µM
TGI [9]: > 100 µM
TGI [10]: > 100 µM
TGI [11]: > 100 µM
TGI [12]: > 100 µM
TGI [13]: > 100 µM

CC1(C)OCC2OC3([C@H](O)CCO)OC(C)(C)OC3C2O1 (stereo partly drawn)
TGI [1]: > 100 µM
TGI [2]: > 100 µM
TGI [3]: > 100 µM
TGI [4]: > 100 µM
TGI [5]: > 100 µM
TGI [6]: > 100 µM
TGI [7]: > 100 µM
TGI [8]: > 100 µM
TGI [9]: > 100 µM
TGI [10]: > 100 µM
TGI [11]: > 100 µM
TGI [12]: > 100 µM
TGI [13]: > 100 µM

O=C(CCCCCCCCC(=O)NN1C(=O)/C(=C\c2ccc(O)c(O)c2)SC1c1c(O)ccc2ccccc12)NN1C(=O)C(=Cc2ccc(O)c(O)c2)SC1c1c(O)ccc2ccccc12 (stereo not drawn)
TGI [1]: > 59.8 µM
TGI [2]: 95.1 µM
TGI [3]: > 100 µM
TGI [4]: > 87.4 µM
TGI [5]: > 38.6 µM
TGI [6]: > 100 µM
TGI [7]: > 54.4 µM
TGI [8]: > 70.3 µM
TGI [9]: > 100 µM
TGI [10]: > 48.5 µM
TGI [11]: > 100 µM
TGI [12]: 45.6 µM
TGI [13]: > 62.7 µM

O=c1c2cc(Br)ccc2oc2nc3n(c(=O)c12)CCCS3
TGI [1]: > 100 µM
TGI [2]: > 100 µM
TGI [3]: > 100 µM
TGI [4]: > 100 µM
TGI [5]: > 100 µM
TGI [6]: > 100 µM
TGI [7]: > 100 µM
TGI [8]: > 100 µM
TGI [9]: > 100 µM
TGI [10]: > 100 µM
TGI [11]: > 100 µM
TGI [12]: > 100 µM
TGI [13]: > 100 µM

COC(=O)NCCc1[nH]nc2c1C(=O)C=C(OC)C2=O
TGI [1]: > 100 µM
TGI [2]: 44.4 µM
TGI [3]: 35.5 µM
TGI [4]: 38.8 µM
TGI [5]: > 100 µM
TGI [6]: 37 µM
TGI [7]: 32 µM
TGI [8]: 45.6 µM
TGI [9]: > 100 µM
TGI [10]: 33.9 µM
TGI [11]: 33.3 µM
TGI [12]: 48.7 µM
TGI [13]: 37.7 µM

COc1ccc(-c2cc(-c3ccc(Nc4ccnc5cc(C(F)(F)F)ccc45)cc3)[nH]c(=O)c2C#N)c2ccccc12
TGI [1]: > 83.7 µM
TGI [2]: > 100 µM
TGI [3]: > 100 µM
TGI [4]: > 100 µM
TGI [5]: > 100 µM
TGI [6]: > 81.5 µM
TGI [7]: > 36.4 µM
TGI [8]: > 54.7 µM
TGI [9]: > 100 µM
TGI [10]: > 70.7 µM
TGI [11]: > 52.9 µM
TGI [12]: > 100 µM
TGI [13]: > 100 µM

C=C(C)CCC1CCCCC(CN(C)C)C1=O (stereo not drawn)
TGI [1]: > 100 µM
TGI [2]: > 100 µM
TGI [3]: > 100 µM
TGI [4]: > 100 µM
TGI [5]: > 100 µM
TGI [6]: > 100 µM
TGI [7]: > 100 µM
TGI [8]: > 100 µM
TGI [9]: > 100 µM
TGI [10]: > 100 µM
TGI [11]: > 100 µM
TGI [12]: > 100 µM
TGI [13]: > 100 µM

Cc1cc2c(cc1O)CC[C@@H]1[C@@H]2CC[C@]2(C)[C@@H](O)CC[C@@H]12
GI50 [1]: 16 µM
TGI [1]: 36.1 µM
TGI [2]: 35 µM
TGI [3]: 29.2 µM
TGI [4]: 31.2 µM
TGI [5]: 19.8 µM
TGI [6]: 51.9 µM
TGI [7]: 18.2 µM
TGI [8]: 33.1 µM
TGI [9]: 29.8 µM
TGI [10]: 21.4 µM
TGI [11]: 4.39 µM
GI50 [12]: 5.39 µM
TGI [12]: 21 µM
TGI [13]: 30.4 µM

OC(c1cccs1)c1cc2ccccc2s1 (stereo not drawn)
TGI [1]: > 10 µM
TGI [2]: > 10 µM
TGI [3]: > 10 µM
TGI [4]: > 10 µM
TGI [5]: > 10 µM
TGI [6]: > 10 µM
TGI [7]: > 10 µM
TGI [8]: > 10 µM
TGI [9]: > 10 µM
TGI [10]: > 10 µM
TGI [11]: > 10 µM
TGI [12]: > 10 µM
TGI [13]: > 10 µM

COC(=O)C1OC(O[C@H]2CC[C@]3(C)[C@H]4CC=C5[C@@H]6CC(C)(C)CC[C@]6(C(=O)OC)[C@H](O)C[C@@]5(C)[C@]4(C)CC[C@H]3C2(C)C)C(O)C(O)C1O (stereo partly drawn)
TGI [1]: 21.6 µM
TGI [2]: 18.9 µM
TGI [3]: 19.7 µM
TGI [4]: 25.9 µM
TGI [5]: 28.7 µM
TGI [6]: 23.8 µM
TGI [7]: 23.9 µM
TGI [8]: 26.9 µM
TGI [9]: 22.7 µM
TGI [10]: 18.3 µM
TGI [11]: 24.9 µM
TGI [12]: 25.1 µM
TGI [13]: 30.5 µM

COC(=O)c1ccc2n1C1CC3CC(CC2C3)C1
TGI [1]: > 100 µM
TGI [2]: > 100 µM
TGI [3]: > 100 µM
TGI [4]: > 100 µM
TGI [5]: > 100 µM
TGI [6]: > 100 µM
TGI [7]: > 100 µM
TGI [8]: > 100 µM
TGI [9]: > 100 µM
TGI [10]: > 100 µM
TGI [11]: > 100 µM
TGI [12]: > 100 µM
TGI [13]: > 100 µM

N=c1c2c3n(c4c(=O)n(-c5ccccc5)c(=S)n(c(=O)n1-c1ccccc1)c24)CCCCC3
TGI [1]: > 100 µM
TGI [2]: > 100 µM
TGI [3]: > 100 µM
TGI [4]: > 100 µM
TGI [5]: > 100 µM
TGI [6]: > 100 µM
TGI [7]: > 100 µM
TGI [8]: > 100 µM
TGI [9]: > 100 µM
TGI [10]: > 100 µM
TGI [11]: > 100 µM
TGI [12]: > 100 µM
TGI [13]: > 100 µM

Oc1ccc2c(c1)OCC(O)(c1ccccc1O)C2 (stereo not drawn)
TGI [1]: > 100 µM
TGI [2]: > 100 µM
TGI [3]: > 100 µM
TGI [4]: > 100 µM
TGI [5]: > 100 µM
TGI [6]: > 100 µM
TGI [7]: > 100 µM
TGI [8]: > 100 µM
TGI [9]: > 100 µM
TGI [10]: > 100 µM
TGI [11]: > 100 µM
TGI [12]: > 100 µM
TGI [13]: > 100 µM

CCOC(=O)c1c(C)n(Cc2ccccc2)c2c1cc(O)c1[nH]c3c(c12)CCCC3
TGI [1]: 26.1 µM
TGI [2]: 29.9 µM
TGI [3]: 4.08 µM
TGI [4]: 17.8 µM
TGI [5]: 5.25 µM
TGI [6]: 23.9 µM
TGI [7]: 4.1 µM
TGI [8]: 16.5 µM
TGI [9]: 7.32 µM
TGI [10]: 20.9 µM
TGI [11]: 28.2 µM
TGI [12]: 4.32 µM
TGI [13]: 2.11 µM

N[C@@H]1c2c(Br)sc(Br)c2[C@H](O)[C@@H]1O
TGI [1]: > 100 µM
TGI [2]: > 100 µM
TGI [3]: > 100 µM
TGI [4]: > 100 µM
TGI [5]: > 100 µM
TGI [6]: > 100 µM
TGI [7]: > 100 µM
TGI [8]: > 100 µM
TGI [9]: > 100 µM
TGI [10]: > 100 µM
TGI [11]: > 100 µM
TGI [12]: > 100 µM
TGI [13]: > 100 µM

NC1CC2C3CCC2C1C3=O (stereo not drawn)
TGI [1]: > 100 µM
TGI [2]: > 100 µM
TGI [3]: > 100 µM
TGI [4]: > 100 µM
TGI [5]: > 100 µM
TGI [6]: > 100 µM
TGI [7]: > 100 µM
TGI [8]: > 100 µM
TGI [9]: > 100 µM
TGI [10]: > 100 µM
TGI [11]: > 100 µM
TGI [12]: > 100 µM
TGI [13]: > 100 µM

O=[N+]([O-])c1ccc(Cl)cc1C1ON=C(c2ccccc2)N1C12CC3CC(CC(C3)C1)C2 (stereo not drawn)
TGI [1]: > 100 µM
TGI [2]: > 100 µM
TGI [3]: > 100 µM
TGI [4]: > 100 µM
TGI [5]: > 100 µM
TGI [6]: > 100 µM
TGI [7]: > 100 µM
TGI [8]: > 100 µM
TGI [9]: > 100 µM
TGI [10]: > 100 µM
TGI [11]: > 100 µM
TGI [12]: > 100 µM
TGI [13]: > 100 µM

Cc1cc(C)c2c(n1)S(=O)(=O)N(CCCN1CCN(c3cccc(C(F)(F)F)c3)CC1)/C(=C(\O)c1ccccc1)C2=O
TGI [1]: > 100 µM
TGI [2]: 21.7 µM
TGI [3]: 63.9 µM
TGI [4]: > 100 µM
TGI [5]: > 100 µM
TGI [6]: > 100 µM
TGI [7]: > 100 µM
TGI [8]: > 100 µM
TGI [9]: 22.3 µM
TGI [10]: > 100 µM
TGI [11]: > 100 µM
TGI [12]: 27.6 µM
TGI [13]: 36.8 µM

O=[N+]([O-])CC(SCc1ccccc1)c1ccc2c(c1)OCO2 (stereo not drawn)
TGI [1]: 30 µM
TGI [2]: 17.5 µM
TGI [3]: 27.1 µM
TGI [4]: 25.7 µM
TGI [5]: 39.3 µM
TGI [6]: 28.3 µM
TGI [7]: 18.7 µM
TGI [8]: 28 µM
TGI [9]: 37.9 µM
TGI [10]: 13.1 µM
TGI [11]: 9.63 µM
TGI [12]: 25.2 µM
TGI [13]: 21 µM
